{
  "source": "patent US20210290524A1",
  "about": "“TOPICAL TRPV1 ANTAGONISTS AND METHODS AND COMPOSITIONS THEREOF” (CHILDREN'S MEDICAL CENTER CORPORATION, priority 2016, published 2021)",
  "key": {"[1]": {"molecular_target": "T1, TRPV1 (Mus musculus, UniProt Q704Y3)", "T1 sequence (Q704Y3 whole entry)": "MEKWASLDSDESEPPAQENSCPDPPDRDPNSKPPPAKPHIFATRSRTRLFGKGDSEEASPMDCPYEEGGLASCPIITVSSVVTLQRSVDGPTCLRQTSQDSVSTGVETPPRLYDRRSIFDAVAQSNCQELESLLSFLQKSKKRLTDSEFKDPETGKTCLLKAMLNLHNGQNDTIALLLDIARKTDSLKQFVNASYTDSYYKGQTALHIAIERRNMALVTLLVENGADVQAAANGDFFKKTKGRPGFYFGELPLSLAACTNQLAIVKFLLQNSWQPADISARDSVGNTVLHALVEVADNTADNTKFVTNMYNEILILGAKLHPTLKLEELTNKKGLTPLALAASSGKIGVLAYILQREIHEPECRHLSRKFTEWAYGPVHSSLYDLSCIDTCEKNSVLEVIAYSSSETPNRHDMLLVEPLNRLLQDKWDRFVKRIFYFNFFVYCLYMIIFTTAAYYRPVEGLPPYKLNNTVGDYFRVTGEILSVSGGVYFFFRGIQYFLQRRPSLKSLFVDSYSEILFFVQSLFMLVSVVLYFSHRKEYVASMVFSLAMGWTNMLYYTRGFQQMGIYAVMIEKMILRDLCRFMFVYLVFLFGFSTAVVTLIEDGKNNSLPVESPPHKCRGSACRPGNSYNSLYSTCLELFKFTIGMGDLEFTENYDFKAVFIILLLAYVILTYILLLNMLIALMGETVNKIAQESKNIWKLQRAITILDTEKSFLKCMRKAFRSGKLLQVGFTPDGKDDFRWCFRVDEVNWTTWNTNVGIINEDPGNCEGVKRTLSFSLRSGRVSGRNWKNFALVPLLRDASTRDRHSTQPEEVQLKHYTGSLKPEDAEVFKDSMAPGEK"}, "[2]": {"molecular_target": "T2, TRPV1 (Homo sapiens, UniProt Q8NER1)", "T2 sequence (Q8NER1 whole entry)": "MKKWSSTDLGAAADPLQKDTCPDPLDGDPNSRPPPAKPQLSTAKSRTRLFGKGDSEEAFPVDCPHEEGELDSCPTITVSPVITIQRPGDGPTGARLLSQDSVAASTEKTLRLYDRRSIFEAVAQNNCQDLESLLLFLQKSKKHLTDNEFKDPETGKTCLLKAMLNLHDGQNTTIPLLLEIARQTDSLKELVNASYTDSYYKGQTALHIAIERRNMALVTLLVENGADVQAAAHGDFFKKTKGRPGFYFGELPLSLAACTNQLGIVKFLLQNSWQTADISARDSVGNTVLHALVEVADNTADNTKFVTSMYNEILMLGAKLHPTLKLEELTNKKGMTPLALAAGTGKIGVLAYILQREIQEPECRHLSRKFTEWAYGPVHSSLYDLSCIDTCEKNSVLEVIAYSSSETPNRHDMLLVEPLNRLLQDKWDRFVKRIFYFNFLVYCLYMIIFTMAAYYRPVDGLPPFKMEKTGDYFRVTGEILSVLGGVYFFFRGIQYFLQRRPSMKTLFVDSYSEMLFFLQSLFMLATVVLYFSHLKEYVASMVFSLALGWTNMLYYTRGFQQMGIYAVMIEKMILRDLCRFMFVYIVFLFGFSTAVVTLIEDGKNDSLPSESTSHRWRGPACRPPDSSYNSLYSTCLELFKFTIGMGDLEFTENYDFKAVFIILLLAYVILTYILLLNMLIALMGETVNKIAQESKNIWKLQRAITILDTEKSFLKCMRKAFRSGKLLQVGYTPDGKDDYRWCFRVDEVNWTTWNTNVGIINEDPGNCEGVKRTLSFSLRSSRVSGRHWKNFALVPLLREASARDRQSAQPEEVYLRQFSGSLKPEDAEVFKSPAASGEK", "details": "applied topically; cited from earlier work"}, "[3]": {"test_system": "TrpV1 expressing afferents", "test": "in vivo calcium imaging of injury-activated trigeminal ganglion neurons, topical capsaicin", "design": "species or system mouse", "details": "topical 5 mM capsaicin after incision injury, 32 of 38 neurons", "description": "FIG. 9A is a micrograph of calcium imaging field in trigeminal ganglion of VGlut2^Cre; Rosa26^LSL-GCαMP6f mouse, with neurons active after injury highlighted. Scale bar is 100 μm. […] (The VGlut2^Cre; Rosa26^LSL-GCαMP6f mouse is generated by crossing a VGlut2-Cre mice with a […] mice, therefore the resulting double transgenic VGlut2^Cre; Rosa26^LSL-GCαMP6f mice express tD-Tomato (a red fluorescence protein) in all the sensory neurons but not in any other type of neuron. This allows for labeling and imaging of only sensory neurons in vivo.)\nThe inventors assessed effect of topical TRPV1 agonist capsaicin applied after acute injury and wound in a mouse model in vivo. […] Capsaicin, a TRPV1 agonist, was later applied to the same region to determine that an unexpected high number of neurons, […] of neurons activated by injury were also TRPV1-positive."}, "[4]": {"molecular_target": "T1, TRPV1", "details": "5 nmol/mouse with capsaicin 5 nmol/mouse, paw injection", "description": "Injection of capsaicin into a paw produces a short bout of biting and licking."}, "[5]": {"molecular_target": "T1, TRPV1", "test": "capsaicin-induced calcium flux in primary murine DRG neurons (plate-based/FLIPR)", "format": "cell-based", "design": "capsaicin-induced currents in primary murine DRG neurons using whole cell patch clamp; endogenous in cells; host or cells: primary murine dorsal root ganglion (DRG) neurons", "details": "DRG neuron, read-out: inhibition of capsaicin-induced calcium flux", "text": "To test the possibility that saliva may inhibit the TRPV1 heat pain receptor^12-14 in nociceptors, we collected samples of whole saliva from four human donors and ran a screen on primary murine dorsal root ganglion (DRG) neurons."}, "[6]": {"molecular_target": "TRPM8 (Mus musculus, UniProt Q8R4D5)", "details": "30 μM; Menthol 100 μM"}, "[7]": {"molecular_target": "TRPA1 (Mus musculus, UniProt Q8BLA8)", "sequence (Q8BLA8 whole entry)": "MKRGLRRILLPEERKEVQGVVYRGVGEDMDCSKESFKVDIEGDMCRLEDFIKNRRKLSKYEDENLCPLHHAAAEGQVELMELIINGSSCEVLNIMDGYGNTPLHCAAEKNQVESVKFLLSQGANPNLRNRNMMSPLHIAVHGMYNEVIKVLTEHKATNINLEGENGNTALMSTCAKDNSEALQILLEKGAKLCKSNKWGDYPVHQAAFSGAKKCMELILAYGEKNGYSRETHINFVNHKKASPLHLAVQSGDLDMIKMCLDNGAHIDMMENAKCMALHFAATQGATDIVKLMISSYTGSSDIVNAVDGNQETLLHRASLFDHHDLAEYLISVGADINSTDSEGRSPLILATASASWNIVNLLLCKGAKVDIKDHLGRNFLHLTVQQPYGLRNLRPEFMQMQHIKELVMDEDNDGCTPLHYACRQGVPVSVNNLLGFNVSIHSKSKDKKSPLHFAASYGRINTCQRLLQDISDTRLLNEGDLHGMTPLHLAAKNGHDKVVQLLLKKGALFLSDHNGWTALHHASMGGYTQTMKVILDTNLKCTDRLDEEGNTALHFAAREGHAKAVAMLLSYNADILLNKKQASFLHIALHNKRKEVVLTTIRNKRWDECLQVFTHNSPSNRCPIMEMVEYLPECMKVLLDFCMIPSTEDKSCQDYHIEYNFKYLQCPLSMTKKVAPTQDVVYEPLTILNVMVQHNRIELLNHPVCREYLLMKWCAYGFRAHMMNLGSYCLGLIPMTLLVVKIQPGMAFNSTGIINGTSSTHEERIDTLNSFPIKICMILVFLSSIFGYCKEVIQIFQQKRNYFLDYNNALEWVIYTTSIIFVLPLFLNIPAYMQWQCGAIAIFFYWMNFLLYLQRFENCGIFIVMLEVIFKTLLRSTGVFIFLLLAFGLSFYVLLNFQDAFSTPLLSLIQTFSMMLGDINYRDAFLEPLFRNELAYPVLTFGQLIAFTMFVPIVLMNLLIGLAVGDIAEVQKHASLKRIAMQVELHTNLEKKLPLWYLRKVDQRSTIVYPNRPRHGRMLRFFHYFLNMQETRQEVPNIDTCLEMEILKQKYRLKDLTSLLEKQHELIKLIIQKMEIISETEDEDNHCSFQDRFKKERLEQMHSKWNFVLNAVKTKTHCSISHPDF", "details": "30 μM; AITC 50 μM"}, "[8]": {"molecular_target": "rTRPV1 (Rattus norvegicus, UniProt O35433)", "sequence (O35433 whole entry)": "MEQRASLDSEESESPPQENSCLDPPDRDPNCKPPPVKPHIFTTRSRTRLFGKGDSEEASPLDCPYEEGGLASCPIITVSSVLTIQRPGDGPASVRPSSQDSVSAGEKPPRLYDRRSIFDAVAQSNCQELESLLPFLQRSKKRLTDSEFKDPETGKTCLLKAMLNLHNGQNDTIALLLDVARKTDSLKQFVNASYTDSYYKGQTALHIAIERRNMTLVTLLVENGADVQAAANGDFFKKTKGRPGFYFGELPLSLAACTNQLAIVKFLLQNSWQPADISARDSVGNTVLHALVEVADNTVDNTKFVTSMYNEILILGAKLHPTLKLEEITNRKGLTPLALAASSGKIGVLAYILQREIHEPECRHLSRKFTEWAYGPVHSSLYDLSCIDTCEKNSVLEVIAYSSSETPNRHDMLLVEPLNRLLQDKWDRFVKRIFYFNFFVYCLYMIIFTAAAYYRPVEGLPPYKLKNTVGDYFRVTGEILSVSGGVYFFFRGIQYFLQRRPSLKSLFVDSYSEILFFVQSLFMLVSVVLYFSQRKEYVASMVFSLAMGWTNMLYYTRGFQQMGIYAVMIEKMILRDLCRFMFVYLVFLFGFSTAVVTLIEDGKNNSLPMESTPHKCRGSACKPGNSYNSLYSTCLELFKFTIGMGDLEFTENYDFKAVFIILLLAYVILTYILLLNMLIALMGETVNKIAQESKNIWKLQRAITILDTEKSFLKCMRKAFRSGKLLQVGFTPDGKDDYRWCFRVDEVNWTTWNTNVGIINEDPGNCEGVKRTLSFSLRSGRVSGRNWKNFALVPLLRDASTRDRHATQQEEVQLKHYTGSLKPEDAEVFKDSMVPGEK", "method": "To identify if the antagonists were peptides, we purified saliva through a 30 kDa filter to eliminate large proteins and then used reverse-phase HPLC to fractionate the samples (FIG. 1B). […] The resultant 37 1 mL-fractions were dried, reconstituted in HBSS and screened on HEK cells transiently transfected with TRPV1 (FIG. 1C)."}, "[9]": {"molecular_target": "rat TRPV1 (Rattus norvegicus, UniProt O35433)", "sequence (O35433 whole entry)": "as above", "details": "1 μM"}, "[10]": {"molecular_target": "TRPV4 (Mus musculus, UniProt Q9EPK8)", "sequence (Q9EPK8 whole entry)": "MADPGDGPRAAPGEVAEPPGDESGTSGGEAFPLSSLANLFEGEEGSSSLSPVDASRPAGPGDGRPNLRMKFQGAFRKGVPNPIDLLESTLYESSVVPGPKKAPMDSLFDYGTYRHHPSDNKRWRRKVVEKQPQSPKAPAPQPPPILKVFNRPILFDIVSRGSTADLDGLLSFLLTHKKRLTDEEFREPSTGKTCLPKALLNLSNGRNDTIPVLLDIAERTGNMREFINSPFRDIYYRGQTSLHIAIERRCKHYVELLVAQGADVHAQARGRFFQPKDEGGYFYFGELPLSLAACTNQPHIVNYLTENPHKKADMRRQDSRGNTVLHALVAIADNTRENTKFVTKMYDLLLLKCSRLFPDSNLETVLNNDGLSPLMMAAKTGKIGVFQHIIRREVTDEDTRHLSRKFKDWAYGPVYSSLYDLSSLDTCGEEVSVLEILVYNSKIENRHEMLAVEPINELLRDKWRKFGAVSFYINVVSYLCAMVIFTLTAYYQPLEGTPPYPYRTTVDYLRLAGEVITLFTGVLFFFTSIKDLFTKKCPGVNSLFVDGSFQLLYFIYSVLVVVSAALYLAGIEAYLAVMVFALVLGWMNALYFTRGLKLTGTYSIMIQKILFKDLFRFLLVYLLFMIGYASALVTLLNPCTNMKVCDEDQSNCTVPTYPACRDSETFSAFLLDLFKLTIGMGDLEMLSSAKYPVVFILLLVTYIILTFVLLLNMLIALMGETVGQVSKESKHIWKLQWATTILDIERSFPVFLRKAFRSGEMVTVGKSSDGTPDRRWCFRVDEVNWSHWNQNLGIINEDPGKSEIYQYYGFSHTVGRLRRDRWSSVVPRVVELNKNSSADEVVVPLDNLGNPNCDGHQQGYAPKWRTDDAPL", "details": "30 μM; GSK 1016790A 1 μM"}, "[11]": {"test_system": "TRPV1 pore turret domain mutants (G603-N626)", "details": "deletion and substitution mutations"}, "[12]": {"molecular_target": "T1, TRPV1", "details": "Hot-plate test 52±0.1° C."}, "[13]": {"test_system": "TRPV1", "details": "pH 5.6; 1 μM"}, "[14]": {"molecular_target": "T2, TRPV1", "details": "HEK293 cells transiently expressing hTRPV1"}, "[15]": {"molecular_target": "P2X3 (Mus musculus, UniProt Q3UR32)", "sequence (Q3UR32 whole entry)": "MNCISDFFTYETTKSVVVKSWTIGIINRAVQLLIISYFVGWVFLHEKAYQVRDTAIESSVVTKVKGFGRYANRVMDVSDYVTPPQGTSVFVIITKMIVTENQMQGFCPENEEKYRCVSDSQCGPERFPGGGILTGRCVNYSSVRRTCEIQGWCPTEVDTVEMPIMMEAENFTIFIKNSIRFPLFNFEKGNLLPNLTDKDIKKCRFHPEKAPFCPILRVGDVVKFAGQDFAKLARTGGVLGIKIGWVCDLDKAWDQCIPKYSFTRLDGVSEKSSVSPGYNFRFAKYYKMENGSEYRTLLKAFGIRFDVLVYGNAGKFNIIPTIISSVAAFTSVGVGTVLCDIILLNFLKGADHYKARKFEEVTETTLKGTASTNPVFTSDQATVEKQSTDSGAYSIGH", "details": "30 μM; α,β-methylene-ATP 30 μM"}, "[16]": {"molecular_target": "T1, TRPV1", "details": "Von frey filaments"}, "[17]": {"molecular_target": "T1, TRPV1", "test": "whole cell patch clamp of capsaicin-induced currents in primary murine DRG neurons", "format": "cell-based", "design": "capsaicin-induced currents in primary murine DRG neurons using whole cell patch clamp; endogenous in cells; host or cells: primary murine dorsal root ganglion (DRG) neurons", "details": "for block of capsaicin-induced currents by opiorphin family peptides: DRG neurons"}},
  "note": "Ends that are not written are not given here.",
  "data": [
    {"compound": "CC(C)(C)c1ccc(/C=C/C(=O)Nc2ccc3c(c2)OCCO3)cc1", "note": "[AMG 9810, (E)-3-(4-t-butylphenyl)-N-(2,3-dihydrobenzo[b][1,4]dioxin-6-yl)acrylamide, reference compound]", "values": [
      {"measurement": "acute licking of superficial paw incision wound", "setting": "[1]; topical 30 μM, mice", "result": "reduced"}
    ]},
    {"compound": "O=C(Nc1ccccc1Br)N[C@@H]1CCN(c2ccc(C(F)(F)F)cn2)C1", "note": "[SB705498]", "values": [
      {"measurement": "symptomatic benefit for induced itch", "setting": "[2]", "result": "not to be of symptomatic benefit"}
    ]},
    {"compound": "COc1cc(CNC(=O)CCCC/C=C/C(C)C)ccc1O", "note": "[capsaicin]", "values": [
      {"measurement": "injury-activated neurons responding to capsaicin", "setting": "[3]", "result": 84, "unit": "%"},
      {"measurement": "injury-activated neurons responding to capsaicin", "setting": "[3]; listed as Capsaicin", "result": "~86", "unit": "%"}
    ]},
    {"compound": "QRFSR [opiorphin]", "values": [
      {"measurement": "licking/biting response to superficial paw incision", "setting": "[1]; topical 10 μM, 5 s, C57 mice, vs topical saline", "result": "eliminated"},
      {"measurement": "capsaicin-induced licking response", "setting": "[4]", "result": "significantly reduced"},
      {"measurement": "inhibition at 1 µM", "setting": "[5]", "result": "~50", "unit": "%"},
      {"measurement": "inhibition of calcium flux by TRPM8 agonist", "setting": "[6]", "result": "did not inhibit"},
      {"measurement": "inhibition of calcium flux by TRPA1 agonist", "setting": "[7]", "result": "did not inhibit"},
      {"measurement": "peak efficacy of capsaicin reduced to", "setting": "[8]; 100 nM opiorphin", "result": "~50", "unit": "%"},
      {"measurement": "mode of inhibition versus capsaicin", "setting": "[8]; no rightward-shift of capsaicin curve", "result": "non-competitively"},
      {"measurement": "inhibition of resiniferatoxin action", "setting": "[9]; RTX 100 nM, HEK293 rTRPV1", "result": "inhibited the action"},
      {"measurement": "antagonism of capsaicin-evoked currents across voltages", "setting": "[9]; capsaicin 1 μM, HEK293 rat TRPV1", "result": "antagonized capsaicin-evoked currents at all voltages tested"},
      {"measurement": "inhibition of calcium flux by TRPV4 agonist", "setting": "[10]", "result": "did not inhibit"},
      {"measurement": "inhibitory activity on pore turret mutants", "setting": "[11]", "result": "loss of opiorphin inhibitory activity"},
      {"measurement": "thermal hypersensitivity after capsaicin injection", "setting": "[12]", "result": "reduced"},
      {"measurement": "inhibition of proton-induced currents", "setting": "[13]", "result": "strongly inhibited"},
      {"measurement": "inhibition of capsaicin-induced currents", "setting": "[14]", "result": "inhibited capsaicin-induced currents"},
      {"measurement": "inhibition of calcium flux by P2X3 agonist", "setting": "[15]", "result": "did not inhibit"},
      {"measurement": "mechanical hypersensitivity after capsaicin injection", "setting": "[16]", "result": "reduced"},
      {"measurement": "block of capsaicin-induced currents", "setting": "[17]", "result": "effectively eliminated"},
      {"measurement": "effect on TRPV1 currents, external application", "setting": "[17]", "result": "substantially reduced"},
      {"measurement": "effect on TRPV1 currents, internal application", "setting": "[17]", "result": "no change in TRPV1 currents was detected"},
      {"measurement": "inhibition of capsaicin currents when applied into capsaicin application", "setting": "[17]", "result": "inhibited capsaicin currents"},
      {"measurement": "ability to block capsaicin-evoked currents after pertussis toxin", "setting": "[17]; PTX 1 μg/mL, 3 hours", "result": "remained intact"}
    ]},
    {"compound": "SMR3 peptide: SMR3 peptide (QRGPR; SEQ ID NO: 5) of the opiorphin family [reference compound]", "values": [
      {"measurement": "block of capsaicin-induced currents by opiorphin family peptides", "setting": "[17]", "result": "no such activity"}
    ]},
    {"compound": "sialorphin: rat peptide sialorphin (QHNPR, SEQ ID NO: 4) of the opiorphin family (listed as Rattus norvegicus) [reference compound]", "values": [
      {"measurement": "block of capsaicin-induced currents by opiorphin family peptides", "setting": "[17]", "result": "blocked capsaicin-induced currents"}
    ]}
  ]
}
